US20200246284A1 (Academia Sinica, priority 2015, published 2020)
Several values for one entry are separate records, joined by “and”; a condition that tells them apart may be missing. Identical values can stand only once. Like-named read-outs stand apart in the source and are kept apart here.

What was measured:
H520 = type: cell-based, human
SK-MES-1 = type: cell-based, human
H562 = assay: Cytotoxicity SCLC 72 hr alamar blue; type: cell-based, human
SK-LU-1 = type: cell-based, human
CALU-1 = type: cell-based, human
H226 = type: cell-based, human
H60 = assay: Cytotoxicity SCLC 72 hr alamar blue; type: cell-based, human
H1781 = type: cell-based, human
H146 = assay: Cytotoxicity SCLC 72 hr alamar blue; type: cell-based, human
PC1 (jap) = type: cell-based, human
NOSE ovarian epithelium = type: cell-based, human
H2228 = type: cell-based, human
H647 = type: cell-based, human
H209 = assay: Cytotoxicity SCLC 72 hr alamar blue; type: cell-based, human
H187 = assay: Cytotoxicity SCLC 72 hr alamar blue; type: cell-based, human
H1373 = type: cell-based, human
H322 = type: cell-based, human
in vitro = details: rat, microsomes
Pfeiffer = details: human
Procedure: (§1) After 72 hours, the cultures were pulsed with Alamar Blue overnight, and the fluorescent intensity of resulted cultures was measured by a Synergy H1 plate-reader (BioTek Inc).

SHP77 = assay: Cytotoxicity LCLC/SCLC; type: cell-based, human
Z-138 = assay: Combination with BO-1055, MCL (Tables 28, 29); type: cell-based, human; details: read-out: IC50 single drug
Farage = assay: cells; details: Homo sapiens, read-out: cytotoxicity IC50
[1] = tested on: spontaneous murine B-cell lymphoma; details: mouse
HBL1 = details: human
Procedure: as §1

Karpas-422 = details: human
Procedure: as §1

[2] = for Microsome stability, turnover: 60 mins
A204 rhabdomyosarcoma = assay: Cytotoxicity sarcoma; details: read-out: cytotoxic activity (IC50), A204 (rhabdoid?)
Procedure: as §1

Ly18 = assay: Cytotoxicity DLBCL; details: read-out: cytotoxicity IC50; LY18, DLBCL GCB
Procedure: as §1

Granta = assay: Combination with BO-1055, MCL (Tables 28, 29); type: cell-based, human; details: read-out: IC50 single drug
[3] = tested on: primary Pre-B-ALL cells in NSG mice; assay: Primary pre-B-ALL xenograft; type: in vivo, mouse; details: Q10D2x from day 7
[4] = tested on: nude mice bearing prostate 22Rv/HL2 tumor xenografts; assay: Pathological examination of organs and body weight, 22Rv/HL2 xenograft mice
[5] = tested on: nude mice bearing prostate 22Rv/HL2; assay: Blood chemistry, 22Rv/HL2 xenograft mice; details: 24 hrs after last treatment
NECB-1 = assay: Cytotoxicity mantle cell lymphoma; details: read-out: cytotoxicity IC50; NECB-1, mantle cell lymphoma
Procedure: as §1

Ly10 = details: human
Procedure: as §1

REC-1 = assay: Combination with BO-1055, MCL (Tables 28, 29); type: cell-based, human; details: read-out: IC50 single drug
[6] = Pharmacokinetics, single IV 1 mg/kg or oral 10 mg/kg; type: in vivo, Sprague Dawley rats; details: for oral absorption: 10 mg/kg
Procedure: A single intravenous dose was administered via an indwelling catheter in the jugular vein to a group of 2 male rats at a dose level of 1.0 mg/kg. The formulations were prepared as a solution in 5.0% w/v DMSO with 10% w/v Cremophor in distilled water. […] The formulations were prepared as a solution in 0.5% w/v CMC in distilled water. Serial blood samples were collected from the jugular vein catheter up to 24 h post-dose from all animals in groups.

N.N.[Cl][Pt][Cl] [Cisplatin]
IC50 (H520): 9.1 µM | IC50 (SK-MES-1): ≥ 50 µM | IC50 (H562): 1.39 µM | IC50 (SK-LU-1): 6.94 µM | IC50 (CALU-1): ≥ 20 µM | IC50 (H226): 2.9 µM | IC50 (H60): 2.09 µM | IC50 (H1781): 1.67 µM | IC50 (H146): 3.77 µM | IC50 (PC1 (jap)): ≥ 20 µM | IC50 (NOSE ovarian epithelium): ≥ 25 µM | IC50 (H2228): ≥ 25 µM | IC50 (H647): 8.75 µM | IC50 (H209): 0.31 µM | IC50 (H187): 1.01 µM | IC50 (H1373): 9.46 µM | IC50 (H322): ≥ 10 µM

CN(C)CCNC(=O)c1cccc(NC(=O)Nc2ccc(N(CCCl)CCCl)cc2)c1 [BO-1055, Ureidomustine]
half-life (in vitro): 29.7 min | IC50 (Pfeiffer): 3.87 µM | IC50 (SHP77): 40 µM | IC50 (Z-138): 0.299 µM and 0.303 µM and 0.301 µM | IC50 (Farage): 0.44 µM | IC50 [1]: 0.46 µM | IC50 (HBL1): 0.87 µM | IC50 (Karpas-422): 5.85 µM | Microsome stability, turnover [2]: 75% | Microsome stability, turnover ([2]; listed as ureidomustine): 75% (60 mins turnover %) | % Remaining at 60 min ([2]; RLM): 25% | MR (metabolic rate) ([2]; RLM, 60 min): 0.0203 nmol/min/mg | IC50 (A204 rhabdomyosarcoma): 0.08 µM | IC50 (Ly18): 0.61 µM | IC50 (Granta): 5.26 µM and 5.5 µM and 6.55 µM | reduction of tumor growth [3]: 2 log | survival longer than control [3]: ~100 days | average body-weight ([4]; after cessation of treatment): recovered on day 35-40 | pathological change in heart, liver, spleen, lung and kidney ([4]; day 42 after onset of drug administration): no apparent pathological change | ALT [5]: 56.83 U/L | AST [5]: 102.17 U/L | BUN [5]: 37.23 mg/dL | CREA [5]: 0.38 mg/dL | UA [5]: 3.73 mg/dL | IC50 (NECB-1): 7.71 µM and 8.41 µM | IC50 (Ly10): 0.12 µM | IC50 (REC-1): 17.7 µM and 12.5 µM and 19.3 µM | AUC (0-last) ([6]; IV 1 mg/kg, rat): 925.81 ng·h/mL | AUC (0-∞) ([6]; IV 1 mg/kg, rat): 934.93 ng·h/mL | CLss ([6]; IV 1 mg/kg, rat): 18.00 mL/min/kg | Vss ([6]; IV 1 mg/kg, rat): 0.15 L/kg | t1/2 ([6]; IV 1 mg/kg, rat): 34.8 min | C0 ([6]; male, Sprague Dawley, plasma, IV 1 mg/kg, rat): 12000 ng/mL | plasma levels after oral administration ([6]; oral 10 mg/kg, LLOQ […]): No quantifiable levels | oral absorption ([6]; oral 10 mg/kg, rat): no oral absorption | oral absorption ([6]; oral 10 mg/kg, rat, listed as ureidomustine): No Oral Absorption
